Data: article PMC8698721, “Exploration of the Structure–Function Relationships of a Novel Frog Skin Secretion-Derived Bioactive Peptide, t-DPH1, through Use of Rational Design, Cationicity Enhancement and In Vitro Studies” (Antibiotics, 2021)
Values after ≈ are worked out from the molar mass of the structure shown. Like-named read-outs stand apart in the source and are kept apart here. Where a SMILES comes first, the peptide text is derived from it.

Key:
S. aureus (ATCC 6538) = type: cell-based, Staphylococcus aureus; conditions: ATCC 6538, 24 h
Description: (§1) To assess the antimicrobial activity of t-DPH1 and its designed analogues, MIC and MBC assays were conducted. Seven microorganism strains were used in the assay: Gram-positive bacteria S. aureus (ATCC 6538), E. faecalis (NCTC 12697) and MRSA (NCTC 12493); Gram-negative bacteria E. coli (ATCC 8739), P. aeruginosa (ATCC 9027) and K. pneumoniae (ATCC 43816); yeast, C. albicans (ATCC 10231).
(§2) For MIC assay, the microorganisms were initially incubated in Mueller-Hinton broth (MHB) (for bacteria) or yeast extract peptone dextrose broth (YPD-B) (for yeast) overnight and sub-cultured to achieve their respective logarithmic growth phases (5 × 10^5 CFU/mL). Then, 99 μL of each microorganism and 1 μL of the tested peptide solution were incubated in a 96-well plate. The final on-plate peptide concentrations were from 1 to 512 μM. Except for the peptide group, four other groups were set when conducting this experiment, including a negative control group (PBS), a vehicle control group (1% DMSO), a positive control group (bacteria: 20 μg/mL norfloxacin; yeast: amphotericin B) and a blank control group (MHB or YPD-B with no microorganism culture). Thus, the MIC value represents the lowest concentration of peptides at which no visible growth of the microorganism after 24 h incubation. For the MBC assay, 10 μL of the medium from each clear well was inoculated onto a Mueller–Hinton agar (MHA) (for bacteria) or yeast extract peptone dextrose agar (YPD-A) (for yeast) plate and incubated for 24 h for measurement MBC values.

[1] = tested on: Enterococcus faecalis (E. faecalis) (NCTC 12697); type: cell-based; conditions: NCTC 12697, 24 h
Description: as §1, §2

[2] = tested on: Methicillin-resistant Staphylococcus aureus (MRSA) (NCTC 12493); type: cell-based; conditions: NCTC 12493, 24 h
Description: as §1, §2

E. coli (ATCC 8739) = type: cell-based, Escherichia coli; conditions: ATCC 8739, 24 h
Description: as §1, §2

[3] = tested on: K. pneumoniae (ATCC 43816); type: cell-based, Klebsiella pneumoniae; conditions: ATCC 43816, 24 h
Description: as §1, §2

[4] = tested on: P. aeruginosa (ATCC 9027); type: cell-based, Pseudomonas aeruginosa; conditions: ATCC 9027, 24 h
Description: as §1, §2

C. albicans (ATCC 10231) = type: cell-based, Candida albicans; conditions: ATCC 10231, 24 h
Description: as §1, §2

[5] = tested on: HMEC-1 (human microvascular endothelial cell line); type: cell-based; conditions: 24 h
Description: (§3) The MTT assay was conducted to verify the proliferation inhibitory effect of t-DPH1 and its analogues. Human cancer cell lines (NCI-H838 (ATCC® CRL-5844, human non-small cell lung cancer)), (NCI-H157(ATCC® CRL-5802, human non-small cell lung cancer cell line)), (U251MG (ECACC 09063001, human neuronal glioblastoma cancer cell line)), (PC-3 (ATCC® CRL-1435TM, human prostate carcinoma cancer cell line)) and normal human cell lines (HMEC-1(ATCC®-CRL-3243, human microvascular endothelial cell line)) and (HaCaT (ATCC®-PCS-200-011, human keratinocyte cell)) were purchased from the American Type Culture Collection (ATCC, Manassas, VA, USA) and the European Collection of Cell Cultures (ECACC, Sallisbury, UK) for this assay. For the MTT assay, 8000 cells/per well were seeded in the 96-well plate for 24 h. Subsequently, experiment groups were dosed with fresh serum-free medium containing different concentrations of peptides (100 μM to 10 nM) in 3 replicates. Negative control groups and positive control groups were dosed with the fresh serum-free medium containing equal amounts of PBS, and 0.1% (w/v) Triton X-100, respectively. Then the 96-well plate was incubated at 37 °C with 5% CO2 for 24 h. After, ten microliters of MTT solution (5 mg/mL) (Sigma-Aldrich UK Ltd., Gillingham, UK) were added to each well and incubated in a dark environment for two hours. Then, the solution in each well was removed and 100 μL of DMSO were added and then the plate was shaken for 10 min on a shaking incubator before detecting the OD value by use of a Synergy HT plate reader (BioTek, Minneapolis, MN, USA) at λ = 570 nm.

[6] = tested on: HaCaT (human keratinocyte cell); type: cell-based; conditions: 24 h
Description: as §3

[7] = tested on: NCI-H157 (human non-small cell lung cancer cell line); type: cell-based; conditions: 24 h
Description: as §3

[8] = tested on: NCI-H838 (human non-small cell lung cancer); type: cell-based; conditions: 24 h
Description: as §3

[9] = tested on: PC-3 (human prostate carcinoma cancer cell line); type: cell-based; conditions: 24 h
Description: as §3

[10] = tested on: U251MG (human neuronal glioblastoma cancer cell line); type: cell-based; conditions: 24 h
Description: as §3

horse red blood cells = type: cell-based
Description: The haemolysis assay was performed by mixing 2% (v/v) fresh defibrinated horse blood (TCS Biosciences Ltd., Buckingham, UK) with peptides in different concentrations. Before the test, horse blood was rinsed with PBS three to four times until the supernatant was clear. Next, peptide solutions (from 100 μM to 1 nM) were incubated with the suspension of red blood cells at 37 °C for two hours. The blood cells treated with 1% Triton-X 100 were used as the positive control, and the blood cells treated with PBS were used as the negative control. After incubation, 100 μL of the supernatant from each sample were transferred to a new 96-well plate, and the OD value of each well was measured with a Synergy HT plate reader (BioTek, Minneapolis, MN, USA) with the absorbance set to 570 nm.

MIC (S. aureus (ATCC 6538))	MIC [1]	MIC [2]	MIC (E. coli (ATCC 8739))	MIC [3]	MIC [4]	MIC (C. albicans (ATCC 10231))	IC50 against HMEC-1 [5]	IC50 against HaCaT [6]	IC50 [7]	IC50 [8]	IC50 [9]	Structure (SMILES)	MBC (S. aureus (ATCC 6538))	MBC [1]	MBC [2]	MBC (E. coli (ATCC 8739))	MBC [3]	MBC [4]	MBC (C. albicans (ATCC 10231))	also measured
2 µM (≈ 4.22 µg/mL)	8 µM (≈ 16.9 µg/mL)	2 µM (≈ 4.22 µg/mL)	2 µM (≈ 4.22 µg/mL)	2 µM (≈ 4.22 µg/mL)	4 µM (≈ 8.43 µg/mL)	256 µM (≈ 540 µg/mL)	3.897 µM	3.332 µM	1.55 µM	1.8 µM	2.6 µM	CC[C@H](C)[C@H](NC(=O)[C@H](CCCCN)NC(=O)[C@H](CCCCN)NC(=O)[C@H](Cc1c[nH]c2ccccc12)NC(=O)[C@H](CC(C)C)NC(=O)CN)C(=O)N[C@@H](CCCCN)C(=O)N[C@@H](CC(N)=O)C(=O)N[C@H](C(=O)N[C@@H](C)C(=O)N[C@@H](CCCCN)C(=O)N[C@@H](C)C(=O)N[C@@H](C)C(=O)NCC(=O)N[C@@H](CCCCN)C(=O)N[C@@H](C)C(=O)N[C@@H](C)C(=O)N[C@@H](CC(C)C)C(=O)NCC(=O)N[C@@H](C)C(=O)N[C@@H](CC(C)C)C(N)=O)C(C)C [t-DPH1-5K] (H-GLWKKIKNVAKAAGKAALGAL-NH2)	2 µM (≈ 4.22 µg/mL)	16 µM (≈ 33.7 µg/mL)	4 µM (≈ 8.43 µg/mL)	4 µM (≈ 8.43 µg/mL)	4 µM (≈ 8.43 µg/mL)	8 µM (≈ 16.9 µg/mL)	512 µM (≈ 1080 µg/mL)	IC50 [10]: 2.68 µM; haemolysis (horse red blood cells; 10 µM): ~40%; HC50 (horse red blood cells; red cells of horse): 19.39 µM
128 µM (≈ 288 µg/mL)	512 µM (≈ 1150 µg/mL)	128 µM (≈ 288 µg/mL)	2 µM (≈ 4.5 µg/mL)	64 µM (≈ 144 µg/mL)	64 µM (≈ 144 µg/mL)	512 µM (≈ 1150 µg/mL)	293.2 µM	119.3 µM	427 µM	181 µM	118 µM	CC[C@H](C)[C@H](NC(=O)[C@H](CCCCN)NC(=O)[C@H](CCCCN)NC(=O)[C@H](Cc1c[nH]c2ccccc12)NC(=O)[C@H](CC(C)C)NC(=O)[C@@H](N)Cc1c[nH]c2ccccc12)C(=O)N[C@@H](CCCCN)C(=O)N[C@@H](CC(N)=O)C(=O)N[C@H](C(=O)N[C@@H](C)C(=O)N[C@@H](CCCCN)C(=O)N[C@@H](C)C(=O)N[C@@H](C)C(=O)NCC(=O)N[C@@H](CCCCN)C(=O)N[C@@H](C)C(=O)N[C@@H](C)C(=O)N[C@@H](CCCCN)C(=O)NCC(=O)N[C@@H](C)C(=O)N[C@@H](CC(C)C)C(N)=O)C(C)C [t-DPH1-6KW] (H-WLWKKIKNVAKAAGKAAKGAL-NH2)	128 µM (≈ 288 µg/mL)	> 512 µM	256 µM (≈ 576 µg/mL)	4 µM (≈ 9.01 µg/mL)	64 µM (≈ 144 µg/mL)	128 µM (≈ 288 µg/mL)	> 512 µM	HC50 (horse red blood cells): 2094 µM
